Experimental data: US10092551B2, “Spiro-thiazolones” (Hoffmann-La Roche Inc., priority 2014, dated 2018)

biological target: human V1a receptor (Homo sapiens (Human), UniProt P37288); assay: human V1a receptor binding studies (3H-Vasopressin, SPA beads); settings: membranes of HEK293 cells transiently transfected with human V1a receptor, Ki by Cheng-Prussoff
Experimental: The human V1a receptor was cloned by RT-PCR from total human liver RNA. The coding sequence was subcloned in an expression vector after sequencing to confirm the identity of the amplified sequence. […] Cell membranes were prepared from HEK293 cells transiently transfected with the expression vector and grown in 20 liter fermenters with the following protocol.
50 g of cells are re-suspended in 30 ml freshly prepared ice cold Lysis buffer (50 mM HEPES, 1 mM EDTA, 10 mM MgCl2 adjusted to pH=7.4+complete cocktail of protease inhibitor (Roche Diagnostics)). Homogenized with Polytron for 1 min and sonicated on ice for 2×2 minutes at 80% intensity (Vibracell sonicator). The preparation is centrifuged 20 min at 500 g at 4° C., the pellet is discarded and the supernatant centrifuged 1 hour at 43,000 g at 4° C. (19,000 rpm). The pellet is re-suspended in 12.5 ml Lysis buffer+12.5 ml Sucrose 20% and homogenized using a Polytron for 1-2 min. The protein concentration is determined by the Bradford method and aliquots are stored at −80° C. until use. For binding studies 60 mg Yttrium silicate SPA beads (Amersham) are mixed with an aliquot of membrane in binding buffer (50 mM Tris, 120 mM NaCl, 5 mM KCl, 2 mM CaCl2, 10 mM MgCl2) for 15 minutes with mixing. 50 μl of bead/membrane mixture is then added to each well of a 96 well plate, followed by 50 μl of 4 nM 3H-Vasopressin (American Radiolabeled Chemicals). For total binding measurement 100 μl of binding buffer are added to the respective wells, for non-specific binding 100 μl of 8.4 mM cold vasopressin and for compound testing 100 μl of a serial dilution of each compound in 2% DMSO. The plate is incubated 1 h at room temperature, centrifuged 1 min at 1000 g and counted on a Packard Top-Count. Non-specific binding counts are subtracted from each well and data is normalized to the maximum specific binding set at 100%. To calculate an IC 50 the curve is fitted using a non-linear regression model (XLfit) and the Ki is calculated using the Cheng-Prussoff equation.

Chain of human V1a receptor (P37288 whole entry): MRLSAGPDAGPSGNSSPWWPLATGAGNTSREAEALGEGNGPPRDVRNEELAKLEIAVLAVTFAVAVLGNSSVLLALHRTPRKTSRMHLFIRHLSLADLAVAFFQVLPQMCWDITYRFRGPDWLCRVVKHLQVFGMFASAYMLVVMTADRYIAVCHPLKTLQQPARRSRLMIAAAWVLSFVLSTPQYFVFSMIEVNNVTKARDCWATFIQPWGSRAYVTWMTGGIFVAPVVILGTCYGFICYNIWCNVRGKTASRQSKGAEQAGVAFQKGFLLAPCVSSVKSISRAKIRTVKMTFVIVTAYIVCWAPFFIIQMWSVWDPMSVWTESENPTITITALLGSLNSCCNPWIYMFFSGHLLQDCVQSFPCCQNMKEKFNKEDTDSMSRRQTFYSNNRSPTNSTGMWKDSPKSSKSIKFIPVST

SMILES | pKi hV1a
C/C(=C1/SC(N2CCC3(CC2)OCc2ccccc23)=NC1=O)c1sc(C)nc1C [Example 112, (5E/Z)-5-[1-(2,4-dimethyl-1,3-thiazol-5-yl)ethylidene]-2-(1′H,3H-spiro[2-benzofuran-1,4′-piperidin]-1′-yl)-1,3-thiazol-4(5H)-one] | 8.6
C/C(CF)=C1/SC(N2CCC3(CC2)OCc2ccccc23)=NC1=O [Example 51, (5E/Z)-5-(1-fluoropropan-2-ylidene)-2-(1′H,3H-spiro[2-benzofuran-1,4′-piperidin]-1′-yl)-1,3-thiazol-4(5H)-one] | 7.9
CC(C)CC(CC(C)C)=C1SC(N2CCC3(CC2)OCc2ccccc23)=NC1=O [Example 116, 5-(2,6-dimethylheptan-4-ylidene)-2-(1′H,3H-spiro[2-benzofuran-1,4′-piperidin]-1′-yl)-1,3-thiazol-4(5H)-one] | 8.3
O=C1N=C(N2CCC3(CC2)OCc2ccccc23)S/C1=C1/CCCc2ccccc21 [Example 45, (5Z)-5-(3,4-dihydronaphthalen-1(2H)-ylidene)-2-(1′H,3H-spiro[2-benzofuran-1,4′-piperidin]-1′-yl)-1,3-thiazol-4(5H)-one] | 8.7
O=C1N=C(N2CCC3(CC2)OCc2ccccc23)S/C1=C(\CO)c1ccccc1 [Example 127, (5Z)-5-(2-hydroxy-1-phenylethylidene)-2-(1′H,3H-spiro[2-benzofuran-1,4′-piperidin]-1′-yl)-1,3-thiazol-4(5H)-one] | 9.0
C/C(CNC(=O)OC(C)(C)C)=C1\SC(N2CCC3(CC2)OCc2ccccc23)=NC1=O [Example 65, tert-butyl {(2E)-2-[4-oxo-2-(1′H,3H-spiro[2-benzofuran-1,4′-piperidin]-1′-yl)-1,3-thiazol-5(4H)-ylidene]propyl}carbamate] | 7.7
C/C(=C1/SC(N2CCC3(CC2)OCc2ccccc23)=NC1=O)c1ccco1 [Example 35, (5Z)-5-[1-(furan-2-yl)ethylidene]-2-(1′H,3H-spiro[2-benzofuran-1,4′-piperidin]-1′-yl)-1,3-thiazol-4(5H)-one] | 8.9
CC(C)=C1SC(N2CCC3(CC2)OCc2ccccc23)=NC1=O [Example 30, 5-(propan-2-ylidene)-2-(1′H,3H-spiro[2-benzofuran-1,4′-piperidin]-1′-yl)-1,3-thiazol-4(5H)-one] | 7.8
C/C(=C1/SC(N2CCC3(CC2)OCc2ccccc23)=NC1=O)c1ccc(Cl)nc1 [Example 49, (5E/Z)-5-[1-(6-chloropyridin-3-yl)ethylidene]-2-(1′H,3H-spiro[2-benzofuran-1,4′-piperidin]-1′-yl)-1,3-thiazol-4(5H)-one] | 9.1

Second part, the molecule after the results:

pKi hV1a | SMILES
9.0 | CC/C(=C1/SC(N2CCC3(CC2)OC(=O)c2ccccc23)=NC1=O)c1ccc(Cl)nc1 [Example 150, 1′-{(5Z)-5-[1-(6-chloropyridin-3-yl)propylidene]-4-oxo-4,5-dihydro-1,3-thiazol-2-yl}-3H-spiro[2-benzofuran-1,4′-piperidin]-3-one]
9.3 | [2H]C([2H])([2H])/C(=C1/SC(N2CCC3(CC2)OCc2ccccc23)=NC1=O)c1ccc(Cl)nc1 [Example 171, (5Z)-5-[1-(6-chloropyridin-3-yl)(^2H3)ethylidene]-2-(1′H,3H-spiro[2-benzofuran-1,4′-piperidin]-1′-yl)-1,3-thiazol-4(5H)-one]
7.5 | C/C(=C1\SC(N2CCC3(CC2)OC(=O)c2ccccc23)=NC1=O)c1ccc(C)nc1 [Example 136, 1′-{(5E)-5-[1-(6-methylpyridin-3-yl)ethylidene]-4-oxo-4,5-dihydro-1,3-thiazol-2-yl}-3H-spiro[2-benzofuran-1,4′-piperidin]-3-one]
8.2 | O=C1N=C(N2CCC3(CC2)OCc2ncccc23)S/C1=C1/COCc2ccccc21 [Example 168, (5E/Z)-5-(1H-isochromen-4(3H)-ylidene)-2-(1′H,7H-spiro[furo[3,4-b]pyridine-5,4′-piperidin]-1′-yl)-1,3-thiazol-4(5H)-one]
